The results in this text go back to patent publication US4931443A, “Piperazine compound and pharmaceutical use thereof” (Yoshitomi Pharmaceutical Industries, Ltd., priority 1986, dated 1990).

The target of data set [1] is T1, serotonin-2 receptor (Rattus norvegicus, UniProt P14842).
T1 construct: from tissue; host or cells: rat cerebral cortex, synaptosomal membranes
The experiment in a line: Affinity for serotonin-2 receptor: 3H-spiperone binding assay. As to conditions: rat cerebral cortex synaptosomal membranes; 3H-spiperone 0.5 nM; 37° C., 20 min. As for the experimental part: (§1) Experiment 3 Affinity for serotonin receptor
(2) Affinity for serotonin-2 receptor: ^3 H-spiperone bindig assay
The preparation of synaptosomal membranes and binding assay were performed according to the method of Peroutka and Snyder (Molecular Pharmacology, vol. 16, p. 687, 1979).
Rat cerebral cortex which was maintained in a freezed state was homogenized in 20-fold volumes of ice-cold 0.32 M sucrose and centrifugated at 1,000 g for 10 minutes at 0° C. The supernatant was centrifugated at 50,000 g for 15 minutes at 0° C. The obtained pellets were homogenized in 20-fold volumes of ice-cold 50 mM Tris-HCl buffer (pH 7.5). The mixture was incubated at 37° C. for 10 minutes, and further centrifugated at 50,000 g for 15 minutes at 0° C. The suspension of synaptosomal membrane was prepared by homogenizing the obtained pellets in 60-fold volumes of the buffer mentioned above containing 1.1 mM ascorbic acid, 4 mM calcium chloride and 10 μM pargyline.
To 900 μl of the suspension of synaptosomal membrane were added 50 μl of ^3 H-spiperone (final concentration : 0.5 nM) and 50 μl of the test compound solution or the solvent, and then incubated at 37° C. for 20 minutes. After the completion of incubation, 5 ml of ice-cold buffer as mentioned above was added. Immediately thereafter, the mixture was filtered with suction through Whatman GF/B filter. The filter was washed twice with 5 ml of the same buffer as mentioned above and the radioactivity on the filter was measured by a liquid scintillation counter.

For data set [2], the system named is serotonin-induced head-twitch. The experiment in a line: Experiment 2 Anti-serotonin action (head-twitch method in mice). The class given is in vivo, male dd-strain mice. As to conditions: Mus musculus, po; serotonin 40 μg/0.02 ml i.c.v. 1 h after compound; head-twitch counted 5 min; probit method. As for the experimental part:
Experiment 2 Anti-serotonin action (head-twitch method in mice)
Groups of 8-30 male dd-strain mice were used. The test compounds were orally administered and an hour later, 40 μg/0.02 ml of serotonin was intracerebroventricularly administered. Ten minutes thereafter, the numbers of head-twitch were measured for 5 minutes. The ED50 values calculated by the probit method considering the number of head-twitch induced by the administration of serotonin with less than once as the inhibitory action by the test compound.

In data set [3] the target is T2, serotonin-1 receptor (Rattus norvegicus, UniProt P19327).
T2 sequence (P19327 1-422): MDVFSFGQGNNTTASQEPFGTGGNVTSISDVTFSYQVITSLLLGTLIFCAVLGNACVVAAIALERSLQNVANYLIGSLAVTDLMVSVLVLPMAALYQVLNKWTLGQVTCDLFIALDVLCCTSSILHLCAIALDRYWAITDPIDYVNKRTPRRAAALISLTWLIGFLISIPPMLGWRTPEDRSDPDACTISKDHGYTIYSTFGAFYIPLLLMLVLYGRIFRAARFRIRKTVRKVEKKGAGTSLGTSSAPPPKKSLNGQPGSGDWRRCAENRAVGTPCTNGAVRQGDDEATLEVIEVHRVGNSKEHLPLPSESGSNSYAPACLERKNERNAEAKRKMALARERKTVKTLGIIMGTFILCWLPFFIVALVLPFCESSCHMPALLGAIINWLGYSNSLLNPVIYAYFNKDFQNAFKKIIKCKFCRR
As to the kind of experiment: Affinity for serotonin-1 receptor: 3H-8-OH-DPAT binding assay. As to conditions: rat hippocampus synaptosomal membranes; 3H-8-OH-DPAT 0.2 nM; pH 7.4, 37° C., 10 min. The protocol: as §1
(1) Affinity for serotonin-1 receptor: ^3 H-8-hydroxy-2-(dipropylamino)tetralin(^3 H-8-OH-DPAT) binding assay
Preparation of synaptosomal membranes and ^3 H-8-OH-DPAT binding assay were performed according to the method of Hall et al(Journal of Neurochemistry, vol. 44, p. 1685, 1985).
Rat hyppocampus which was maintained in a freezed state was homogenized in 40-fold volumes of ice-cold 50 mM Tris-HCl buffer (pH 7.4) and centrifugated at 500 g for 10 minutes at 0° C. Further, the supernatant was centrifugated at 40,000 g for 20 minutes at 0° C. and the pellets thus obtained were homogenized in 40-fold volumes of the same buffer as mentioned above, and then incubated at 37° C. for 10 minutes. After incubation, the suspension was centrifugated at 40,000 g for 20 minutes at 0° C. The obtained pellets were washed by repeating twice the procedures of homogenization in the above-mentioned buffer and centrifugation. The suspension of synaptosomal membranes was prepared by homogenizing the pellets finally obtained in 60-fold volumes of 50 mM Tris-HCl buffer (pH 7.4) containing 1 mM manganese chloride.
To 900 μl of the membrane suspension were added 50 μl of ^3 H-8-OH-DPAT solution (final concentration: 0.2 nM), and 50 μl of the test compound solution or the solvent and the mixture was incubated at 37° C. for 10 minutes. After incubation, 5 ml of ice-cold 50 mM Tris-HCl buffer (pH 7.4) was added, and immediately thereafter, the mixture was filtered with suction through Whatman GF/B filter. The filter was washed twice with 5 ml of the same buffer as mentioned above and the radioactivity on the filter was measured by a liquid scintillation counter.

The test system of data set [4] is apomorphine-induced motility. The experiment in a line: Experiment 1 Anti-apomorphine action (motility, Varimex). As to conditions: Mus musculus, po; apomorphine 0.5 mg/kg s.c. 1 h after compound; motility 20 min; dose lowering motility of control by 50%. In kind it is in vivo, male dd-strain mice. As for the experimental part: Experiment 1 Anti-apomorphine action
Groups of 3 male dd-strain mice (4 groups/dose) were used. Test compounds were orally administered and an hour later, 0.5 mg/kg of apomorphine was subcutaneously administered. Immediately thereafter, motility was measured with the aid of Varimex (manufactured by Columbus Co.) for 20 minutes. The ED50 values, the dose of test compound required to lower the motility of the control group by 50%, were graphically calculated.

The nature of data set [5]: Experiment 4 Cataleptogenic action. The class given is in vivo, female Wistar-strain rats. As to conditions: rat, in vivo, po; orally; peak time of catalepsy within 9 hours; probit method. As for the experimental part:
(§2) Then, the cataleptogenic action of the compound of Example 15 was studied for the purpose of measuring the degree of the extrapyramidal side effect. […]
(§3) Experiment 4 Cataleptogenic action
(§4) Groups of 10 female Wistar-strain rats were used. Catalepsy was measured by the partly modified method of Simon et al (Journal of Pharmacy and Pharmacology, vol. 22, P. 546, 1970). The front paws of the rats were placed gently on a vertical grid (4 mm diameter, 9 cm height).
(§5) After the compound of Example 15 was orally administered, catalepsy was measured with the passage of time in 9 hours.

Data set [6] relates to catalepsy. As to the kind of experiment: Experiment 4 Cataleptogenic action. The class given is in vivo, female Wistar-strain rats. As to conditions: rats, index of extrapyramidal side effects. As for the experimental part:
as §2, §3, §4, §5

T1 sequence (P14842 whole entry): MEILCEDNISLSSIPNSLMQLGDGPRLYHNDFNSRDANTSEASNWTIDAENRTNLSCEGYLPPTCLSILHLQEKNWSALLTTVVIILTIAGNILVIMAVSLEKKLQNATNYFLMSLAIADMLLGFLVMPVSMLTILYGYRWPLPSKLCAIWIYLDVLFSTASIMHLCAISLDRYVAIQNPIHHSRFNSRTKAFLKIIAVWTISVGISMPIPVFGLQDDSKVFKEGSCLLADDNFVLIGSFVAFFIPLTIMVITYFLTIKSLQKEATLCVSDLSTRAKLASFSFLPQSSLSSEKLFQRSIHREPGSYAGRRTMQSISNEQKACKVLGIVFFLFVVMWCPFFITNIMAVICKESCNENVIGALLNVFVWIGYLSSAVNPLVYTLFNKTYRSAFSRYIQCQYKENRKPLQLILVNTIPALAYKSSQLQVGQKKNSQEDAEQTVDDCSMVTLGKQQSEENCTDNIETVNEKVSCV

For `Cc1cccc(N2CCN(CCCCc3ccc(C4CCC(=O)N4)cc3)CC2)c1` (centres unmarked) [Example 1, 5-[4-(4-(4-(3-methylphenyl)piperazin-1-yl)butyl)phenyl]pyrrolidin-2-one], the Ki in data set [1] is 23 nM; in data set [3] it was 0.61 nM. For the same compound, the median effective dose (ED50) is 0.53 mg/kg in data set [2] and 13 mg/kg in data set [4].

With `Cl.O=C1CCC(c2ccc(CCN3CCN(c4cccc(C(F)(F)F)c4)CC3)cc2)N1` (centres unmarked) [Example 2, 5-[4-(2-(4-(3-trifluoromethylphenyl)piperazin-1-yl)ethyl)phenyl]pyrrolidin-2-one hydrochloride], the results for the inhibition constant (Ki) in data set [1] and in data set [3] were 78 nM and 0.31 nM, respectively. For the same compound, the values for the ED50 in data set [2] and in data set [4] were 0.15 mg/kg and 15 mg/kg, respectively.

For the compound `O=C1CCC(c2ccc(CCCCN3CCN(c4ccc(F)cc4)CC3)cc2)N1` (centres unmarked) [Example 6, 5-[4-(4-(4-(4-fluorophenyl)piperazin-1-yl)butyl)phenyl]pyrrolidin-2-one], the Ki amounted to 66 nM in data set [1] and 4.7 nM in data set [3]. In addition, the ED50 in data set [2] is 2.2 mg/kg; in data set [4] it was 4.2 mg/kg.

Regarding `COc1ccccc1N1CCN(CCCCc2ccc(C3CCC(=O)N3)cc2)CC1` (centres unmarked) [Example 7, 5-[4-(4-(4-(2-methoxyphenyl)piperazin-1-yl)butyl)phenyl]pyrrolidin-2-one], the inhibitory constant (Ki) in data set [1] turned out to be 480 nM; in data set [3], 0.28 nM. Moreover, the median effective dose (ED50) in data set [2] was determined as 3.5 mg/kg; in data set [4], 2.1 mg/kg.

As for `O=C1CCC(c2ccc(CCCN3CCN(c4ccccc4)CC3)cc2)N1` (centres unmarked) [Example 9, 5-[4-(3-(4-phenylpiperazin-1-yl)propyl)phenyl]pyrrolidin-2-one], the figures for the Ki in data set [1] and in data set [3] were 250 nM and 4.5 nM, respectively. The ED50 in data set [2] was found to be 2.4 mg/kg; in data set [4], 9.5 mg/kg.

As to `Cl.Cl.O=C1CCC(c2ccc(CCCCN3CCN(c4cccc(C(F)(F)F)c4)CC3)cc2)N1` (centres unmarked) [Example 15, 5-[4-(4-(4-(3-trifluoromethylphenyl)piperazin-1-yl)butyl)phenyl]pyrrolidin-2-one dihydrochloride], the Ki was 63 nM in data set [1] and 0.4 nM in data set [3]. The figures for the ED50 in data set [5], in data set [2] and in data set [4] were 250 mg/kg, 0.32 mg/kg and 4.2 mg/kg, respectively. Moreover, the “cataleptogenic action (in words)” value in data set [6] was “very weak cataleptic action”.
